The text below walks through data of ChEMBL document CHEMBL1152776, “Facile synthesis of diazido-functionalized biaryl compounds as radioisotope-free photoaffinity probes by Suzuki-Miyaura coupling” (Bioorg Med Chem, 2009).

The source made the active and inactive calls. No cut-off for these calls is given here.

Assay [1] concerns Muscle tissue. The experiment in a line: Inhibition of physiological calcium release in mouse sarcoplasmic reticular skeletal muscle at 50 uM. The class given is functional, tissue-based.
The species entered for assay [2] is Mus musculus. The experiment in a line: Inhibition of Ca2+-induced calcium release in mouse sarcoplasmic reticular skeletal muscle at 50 uM. The class given is functional.
In assay [3] the test system is Muscle tissue. The experiment in a line: Inhibition of physiological calcium release in mouse sarcoplasmic reticular skeletal muscle. It counts as functional, tissue-based.
The species entered for assay [4] is Mus musculus. Kind of assay: Inhibition of Ca2+-induced calcium release in mouse sarcoplasmic reticular skeletal muscle. It counts as functional.
Assay [5] concerns the target Ryanodine receptor 1 (Homo sapiens) (UniProt P21817). The experiment in a line: Binding affinity to RyR1 by photolabeling experiment.
The mark [6] stands for this setting: tested as the 125I-labelled form.

Ryanodine receptor 1 (Homo sapiens), sequence (P21817 whole entry): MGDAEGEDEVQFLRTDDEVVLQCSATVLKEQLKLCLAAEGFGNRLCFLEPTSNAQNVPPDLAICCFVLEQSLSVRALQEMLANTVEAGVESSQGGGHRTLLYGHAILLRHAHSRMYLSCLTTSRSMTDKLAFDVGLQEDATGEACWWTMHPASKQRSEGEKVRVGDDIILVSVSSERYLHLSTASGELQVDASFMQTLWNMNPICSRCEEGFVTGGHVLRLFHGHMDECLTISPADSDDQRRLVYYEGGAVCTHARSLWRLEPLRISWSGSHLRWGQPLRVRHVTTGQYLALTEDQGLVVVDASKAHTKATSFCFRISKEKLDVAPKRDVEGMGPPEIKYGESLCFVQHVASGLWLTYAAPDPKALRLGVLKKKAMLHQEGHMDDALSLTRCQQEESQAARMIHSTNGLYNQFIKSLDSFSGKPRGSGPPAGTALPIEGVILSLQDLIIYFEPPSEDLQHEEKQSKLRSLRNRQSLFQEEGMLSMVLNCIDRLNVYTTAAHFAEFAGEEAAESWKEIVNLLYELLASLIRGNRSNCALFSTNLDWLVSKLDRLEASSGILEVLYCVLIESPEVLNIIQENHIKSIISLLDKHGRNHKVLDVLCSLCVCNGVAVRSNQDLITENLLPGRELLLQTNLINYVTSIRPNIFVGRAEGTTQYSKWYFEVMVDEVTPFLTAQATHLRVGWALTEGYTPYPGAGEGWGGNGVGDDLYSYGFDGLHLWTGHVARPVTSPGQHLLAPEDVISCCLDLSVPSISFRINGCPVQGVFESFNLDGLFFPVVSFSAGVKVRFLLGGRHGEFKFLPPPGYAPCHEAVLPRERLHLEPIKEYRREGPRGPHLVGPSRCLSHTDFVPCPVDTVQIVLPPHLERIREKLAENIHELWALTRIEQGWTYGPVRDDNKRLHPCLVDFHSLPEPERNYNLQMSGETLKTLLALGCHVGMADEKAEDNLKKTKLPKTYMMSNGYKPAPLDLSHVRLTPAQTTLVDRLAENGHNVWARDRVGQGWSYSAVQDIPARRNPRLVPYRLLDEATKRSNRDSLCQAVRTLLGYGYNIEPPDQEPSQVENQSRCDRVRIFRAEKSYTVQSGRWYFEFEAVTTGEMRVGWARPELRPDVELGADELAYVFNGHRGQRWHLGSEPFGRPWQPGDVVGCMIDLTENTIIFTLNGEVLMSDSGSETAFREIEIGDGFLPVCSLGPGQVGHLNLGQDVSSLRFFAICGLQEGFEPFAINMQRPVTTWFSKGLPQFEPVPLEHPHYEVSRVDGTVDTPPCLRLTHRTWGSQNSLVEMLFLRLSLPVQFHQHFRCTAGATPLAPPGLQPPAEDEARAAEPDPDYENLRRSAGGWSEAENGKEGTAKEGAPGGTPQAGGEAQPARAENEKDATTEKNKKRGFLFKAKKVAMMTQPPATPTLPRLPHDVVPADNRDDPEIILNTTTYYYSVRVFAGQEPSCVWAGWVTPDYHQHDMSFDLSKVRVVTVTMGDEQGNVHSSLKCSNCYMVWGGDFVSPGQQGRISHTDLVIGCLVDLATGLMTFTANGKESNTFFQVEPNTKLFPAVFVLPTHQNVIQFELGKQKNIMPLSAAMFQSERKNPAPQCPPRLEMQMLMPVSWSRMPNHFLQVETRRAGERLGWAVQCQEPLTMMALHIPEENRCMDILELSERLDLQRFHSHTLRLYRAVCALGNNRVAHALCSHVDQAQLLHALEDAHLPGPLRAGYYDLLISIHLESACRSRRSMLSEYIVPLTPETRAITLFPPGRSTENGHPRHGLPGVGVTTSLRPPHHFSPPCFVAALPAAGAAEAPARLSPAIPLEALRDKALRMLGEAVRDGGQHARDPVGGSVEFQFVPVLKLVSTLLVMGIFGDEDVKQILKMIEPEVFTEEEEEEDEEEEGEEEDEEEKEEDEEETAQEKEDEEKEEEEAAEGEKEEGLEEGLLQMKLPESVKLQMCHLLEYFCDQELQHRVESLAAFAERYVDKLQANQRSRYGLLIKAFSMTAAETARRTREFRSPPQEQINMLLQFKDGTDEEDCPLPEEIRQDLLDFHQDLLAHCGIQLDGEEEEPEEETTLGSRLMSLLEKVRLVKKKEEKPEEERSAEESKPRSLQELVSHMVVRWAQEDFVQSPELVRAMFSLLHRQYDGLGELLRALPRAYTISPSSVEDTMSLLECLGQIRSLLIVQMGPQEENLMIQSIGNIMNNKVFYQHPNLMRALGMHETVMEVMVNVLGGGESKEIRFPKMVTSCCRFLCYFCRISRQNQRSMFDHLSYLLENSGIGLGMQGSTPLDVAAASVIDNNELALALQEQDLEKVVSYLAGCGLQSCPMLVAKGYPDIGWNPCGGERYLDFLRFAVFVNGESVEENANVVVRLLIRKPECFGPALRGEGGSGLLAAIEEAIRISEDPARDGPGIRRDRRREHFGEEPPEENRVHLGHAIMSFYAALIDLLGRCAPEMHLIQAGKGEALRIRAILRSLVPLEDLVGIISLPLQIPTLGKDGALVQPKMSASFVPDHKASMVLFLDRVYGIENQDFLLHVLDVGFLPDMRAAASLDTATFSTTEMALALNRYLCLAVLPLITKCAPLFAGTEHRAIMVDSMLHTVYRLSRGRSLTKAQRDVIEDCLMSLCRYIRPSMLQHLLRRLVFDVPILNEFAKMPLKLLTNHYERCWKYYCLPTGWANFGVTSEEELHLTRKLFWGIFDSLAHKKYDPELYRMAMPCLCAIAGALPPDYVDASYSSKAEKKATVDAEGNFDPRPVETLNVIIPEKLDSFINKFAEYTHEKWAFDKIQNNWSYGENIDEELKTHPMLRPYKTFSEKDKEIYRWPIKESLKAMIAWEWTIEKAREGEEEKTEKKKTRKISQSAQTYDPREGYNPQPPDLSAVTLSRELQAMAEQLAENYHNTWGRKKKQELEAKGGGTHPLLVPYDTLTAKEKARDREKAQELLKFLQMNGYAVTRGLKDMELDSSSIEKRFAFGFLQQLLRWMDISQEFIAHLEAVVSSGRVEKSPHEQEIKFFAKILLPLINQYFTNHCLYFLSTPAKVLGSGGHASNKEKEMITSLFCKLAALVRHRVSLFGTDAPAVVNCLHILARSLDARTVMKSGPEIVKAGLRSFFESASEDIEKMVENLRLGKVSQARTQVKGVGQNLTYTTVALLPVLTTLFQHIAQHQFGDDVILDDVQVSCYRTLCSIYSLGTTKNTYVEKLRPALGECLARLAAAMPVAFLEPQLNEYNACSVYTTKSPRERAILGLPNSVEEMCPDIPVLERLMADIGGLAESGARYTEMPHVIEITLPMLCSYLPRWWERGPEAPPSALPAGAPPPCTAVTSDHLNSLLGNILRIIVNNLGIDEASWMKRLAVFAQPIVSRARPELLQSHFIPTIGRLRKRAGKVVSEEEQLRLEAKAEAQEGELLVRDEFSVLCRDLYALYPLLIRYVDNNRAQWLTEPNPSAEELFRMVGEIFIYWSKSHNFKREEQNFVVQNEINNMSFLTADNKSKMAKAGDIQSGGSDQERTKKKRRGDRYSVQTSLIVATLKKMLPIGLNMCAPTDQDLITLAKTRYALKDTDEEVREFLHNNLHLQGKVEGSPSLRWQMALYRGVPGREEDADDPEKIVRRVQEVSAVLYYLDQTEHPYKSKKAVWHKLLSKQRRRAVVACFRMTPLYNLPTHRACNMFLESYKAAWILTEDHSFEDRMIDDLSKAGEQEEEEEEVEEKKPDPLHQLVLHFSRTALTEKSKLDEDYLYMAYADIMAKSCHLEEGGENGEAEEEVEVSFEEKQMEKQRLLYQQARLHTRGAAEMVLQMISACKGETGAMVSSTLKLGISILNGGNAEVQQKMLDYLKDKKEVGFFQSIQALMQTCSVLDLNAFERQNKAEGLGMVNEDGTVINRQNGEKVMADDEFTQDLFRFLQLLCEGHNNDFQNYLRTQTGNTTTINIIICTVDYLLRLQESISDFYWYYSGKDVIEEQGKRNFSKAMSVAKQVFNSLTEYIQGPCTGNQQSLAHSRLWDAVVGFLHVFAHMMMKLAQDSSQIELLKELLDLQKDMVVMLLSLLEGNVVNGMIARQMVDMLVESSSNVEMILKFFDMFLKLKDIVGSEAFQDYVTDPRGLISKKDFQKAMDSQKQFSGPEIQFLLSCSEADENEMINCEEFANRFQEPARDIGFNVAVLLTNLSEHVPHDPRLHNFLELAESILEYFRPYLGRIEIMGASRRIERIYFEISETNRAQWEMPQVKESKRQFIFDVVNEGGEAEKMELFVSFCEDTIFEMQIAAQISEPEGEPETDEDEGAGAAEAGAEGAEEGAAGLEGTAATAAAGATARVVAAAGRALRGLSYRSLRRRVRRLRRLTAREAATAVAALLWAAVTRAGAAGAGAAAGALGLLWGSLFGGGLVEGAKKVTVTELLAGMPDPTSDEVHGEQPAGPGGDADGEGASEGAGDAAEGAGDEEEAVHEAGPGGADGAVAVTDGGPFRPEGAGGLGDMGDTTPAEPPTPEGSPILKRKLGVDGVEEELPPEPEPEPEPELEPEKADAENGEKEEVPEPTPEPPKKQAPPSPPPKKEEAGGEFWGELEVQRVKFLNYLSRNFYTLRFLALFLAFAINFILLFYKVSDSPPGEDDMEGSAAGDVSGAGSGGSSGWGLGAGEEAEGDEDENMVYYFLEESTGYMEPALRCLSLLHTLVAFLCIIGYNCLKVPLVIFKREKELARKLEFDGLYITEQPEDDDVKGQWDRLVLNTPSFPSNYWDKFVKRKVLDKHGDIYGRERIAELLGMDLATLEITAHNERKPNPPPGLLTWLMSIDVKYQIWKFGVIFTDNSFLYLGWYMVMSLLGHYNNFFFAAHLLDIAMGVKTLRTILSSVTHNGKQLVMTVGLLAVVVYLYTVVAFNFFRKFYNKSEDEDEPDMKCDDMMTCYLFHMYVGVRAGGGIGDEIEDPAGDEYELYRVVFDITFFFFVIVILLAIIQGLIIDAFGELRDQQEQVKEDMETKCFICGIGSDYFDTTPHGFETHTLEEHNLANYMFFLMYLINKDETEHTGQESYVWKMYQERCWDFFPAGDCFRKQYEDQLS

Take `[N-]=[N+]=Nc1ccc(-c2ccc(/C=N/N3CC(=O)NC3=O)o2)cc1`: the outcome in assay [1] and in assay [2] was Active.

With `[N-]=[N+]=NCc1cc(N=[N+]=[N-])cc(-c2ccc(/C=N/N3CC(=O)NC3=O)o2)c1`, in assay [3], the outcome was Active. Besides, the result in assay [4] was inactive.

As for `[N-]=[N+]=NCc1cc(CN2C(=O)CN(/N=C/c3ccc(-c4ccc([N+](=O)[O-])cc4)o3)C2=O)cc(N=[N+]=[N-])c1`, the result in assay [5] was inactive. Moreover, the result in assay [3] was Active.

Turning to `[N-]=[N+]=Nc1cc(I)cc(CN2C(=O)CN(/N=C/c3ccc(-c4ccc([N+](=O)[O-])cc4)o3)C2=O)c1`, the outcome in assay [5] (setting [6]) and in assay [4] (setting [6]) was inactive. The outcome in assay [3] (setting [6]) was Active.
